We go through 1 compound from paper PMC2628638, “Catalytic inhibition of topoisomerase II by a novel rationally designed ATP-competitive purine analogue” (BMC Chemical Biology, 2009).

This assay relates to HeLa T-Rex cells. Nature of the assay: Gamma-H2AX In-Cell Western assay (doxorubicin-induced DNA damage). The format is cell-based. As to conditions: Homo sapiens, HeLa; 30 minutes pretreatment, then 1 μM doxorubicin for 2 hours; read-out: IC50, suppression of doxorubicin-induced γH2AX signal. How it is done:
In-Cell Western analysis was carried out as follows. HeLa T-Rex cells were seeded at the cell density of 15 × 10^3 cells per well in black 96-well plates (Greiner Bio-one Vacuette, St Gallen, Switzerland). The day post-seeding, cells were pretreated with increasing concentrations of either ICRF-193, QAP 1 or vehicle (DMSO) for 30 minutes followed by a 2 hours treatment with 1 μM of doxorubicin, or were only treated with the same concentrations of ICRF-193, QAP 1 or vehicle (DMSO) for 2 hours. Treatments were done in triplicate. […] Finally, cells were washed 4 times with 50 μl per well of PBS containing 0.1% Tween-20 for 3 minutes, liquid was removed and plates were kept at 4°C until reading. γH2AX signals were read using the LI-COR Odyssey Infrared Imager with the Odyssey v1.1 software using the 800 nm channel. Blank values correspond to non-specific γH2AX signal detected in wells without primary antibody staining. […] The resulting values for each sample were normalized to the DNA quantity by measuring the corresponding TO-PRO-3 iodide signals. The TO-PRO-3 iodine signals were detected by using the 700 nm channel. The percentage of γH2AX signal was determined for each concentration of ICRF193 and QAP 1 with or without doxorubicin treatment by setting the value for the treatment with vehicle and 1 μM doxorubicin to 100%. […]

Turning to `CCc1nc2nc(Nc3ccc4nc(OCCN5CCOCC5)ccc4c3)nc(NC(C)(C)C)c2[nH]1` [QAP 1], the IC50 is approximately 1100 nM.
